Source: patent US7888319B2, “Compositions and methods for promoting wound healing and tissue regeneration” (MUSC Foundation for Research Development, priority 2004, dated 2011)
Ends that are not written are not given here.

Key:
[1] = test system: 5 mm diameter excisional skin wounds; experiment: Small (5 mm) excisional skin wounds in adult mice, ACT 1 to ACT 5; assay type: in vivo, mouse
Procedure: Anesthetized adult mice had 2 small (5 mm diameter) excisional skin wounds made by fine surgical scissors on the neck and (upper) back. The boundaries of the injuries were demarcated by a 5 mm wide circular template cut in a plastic sheet. 50-60 μl of a solution of 20% pluronic gel containing either no (control) or one of the ACT peptides (ACT 2-SEQ ID NO: 1, ACT 1-SEQ ID NO:2, ACT 3-SEQ ID NO:3, ACT 4-SEQ ID NO:4, ACT 5-SEQ ID NO:5) dissolved at concentrations of 100 μM were then applied to the excisional injuries. Control or ACT peptide-containing gel was applied subsequently 24 hours after the initial application. No further applications of control and ACT peptide-containing gel were made after the second application. […] Note that the same wound on the same animal is shown at the different time points during the healing time course. Anesthetized adult mice had 2 small (5 mm diameter) excisional skin wounds made by fine surgical scissors on the neck and (upper) back. The boundaries of the injuries were demarcated by a 5 mm wide circular template cut in a plastic sheet. 50-60 μl of a solution of 30% pluronic gel containing either no (control) or one of the ACT peptides (ACT 2—SEQ ID NO:1, ACT 1—SEQ ID NO:2, ACT 3—SEQ ID NO:3, ACT 4—SEQ ID NO:4, ACT 5—SEQ ID NO:5) dissolved at concentrations of 100 μM were then applied to the excisional injuries. Control or ACT peptide-containing gels were applied subsequently 24 hours after the initial application. No further applications of control and ACT peptide-containing gel were made after the second application. […] Note that the same wound on the same animal is shown at the different time points during the healing time course. The area of open wound was measured during the time course using NIH image according to standard protocols on multiple (˜5 mice per control or treatment condition) adult mice. These individual area measurements were then normalized to (i.e., divided by) the average area measured for the control injuries for a given time point, multiplied by 100 to give a % of unclosed wound relative to the control and then plotted against time. A Mann-Whitney U-test was used to statistically assess the effects of ACT peptides over the time course. […] These treatments provided results with significant p values.

[2] = test system: Cx43 gap junction formation; experiment: Cx43 gap junction formation in cultured neonatal myocytes; assay type: cell-based, rat; conditions: 30 μM peptide, 5 days in culture, relative to non-active control peptide and PBS
Procedure: Myocytes from neonatal rat hearts were grown until forming a near-confluent monolayer on a tissue culture dish according to standard protocols. The cultures were subsequently allowed to culture for a further 5 days in culture medium comprising (a) 30 μM ACT 1 peptide (SEQ ID NO:2), (b) 30 μM non-active control peptide (SEQ ID NO:55), or (c) phosphate buffered saline (PBS) containing no ACT peptide or control. Culture media with added peptides or vehicle control was changed every 24 hours during the experiment. […] This increase in Cx43 gap junction formation in response to ACT peptide is shared by a number of cell types expressing Cx43.
Myocytes from neonatal rat hearts were grown until forming a near-confluent monolayer on a tissue culture dish according to standard protocols. The cultures were subsequently allowed to culture for a further 5 days culture medium comprising 30 μM ACT 1 peptide (SEQ ID NO:2), 30 μM non-active control peptide (SEQ ID NO:55), or phosphate buffered saline (PBS) containing no ACT peptide or control peptide. The non-active control peptide comprises a polypeptide with a carboxy terminus in which the ACT peptide sequence has been reversed. […]

NIH-3T3 cells = experiment: In vitro scratch injury of NIH-3T3 monolayer (repopulation, PCNA immunolabeling); assay type: cell-based; conditions: 30 μM
Procedure: An NIH-3T3 monolayer was pre-treated with ACT 1 peptide (SEQ ID NO:2) for 24 hrs, and “scratch-injured” with a p200 pipette tip. The “scratch injury” was subsequently allowed to “heal” for 24 hours in the presence of (a, b) 30 μM ACT 1 peptide (SEQ ID NO:2), (c, d) 30 μM non-active control peptide (SEQ ID NO: 55), or (e, f) vehicle control solution containing no ACT peptide or control peptide. […] The repopulation of the “scratch injury” occurs in part via migration of the transformed cells crawling into the “scratch injury” area. Figures (b), (d) and (f) show proliferating cell nuclear antigen (PCNA) immunolabeling of cells in the “scratch injury” or at the injury edge.
NIH-3T3 fibroblasts were “scratch injured” and subject to the continuous presence of 30 μM ACT 1 peptide (SEQ ID NO:2) for 24 hours or the control conditions as outlined in FIG. 2. […] The cells have been labeled with fluorescent phalloidin to aid visualization. ACT peptide-treated cells show low levels of repopulation of the scratch injury area (white double headed arrows).
NIH-3T3 cells were grown over 2-3 days until forming a near-confluent monolayer on a tissue culture dish according to standard protocols and the monolayer was then pre-treated with ACT 1 peptide (SEQ ID NO:2) for 24 hrs, and “scratch-injured” with a p200 pipette tip. The “scratch injury” was subsequently allowed to repopulate for 24 hours in the presence of 30 μM ACT 1 peptide (SEQ ID NO:2) dissolved in the culture media (FIG. 2a, b) or in presence of two control conditions (FIG. 2c-f). In the first control condition, the “scratch-injured” cells were allowed to repopulate for 24 hours in the presence of a non-active control peptide (as in FIG. 1) dissolved in the culture media at a concentration of 30 μM (FIG. 2c, d). In the second control condition, phosphate buffered saline (PBS) was added to the culture media and the “scratch-injured” cells were allowed to repopulate in the presence of this vehicle control solution containing no ACT peptide or control peptide (FIG. 2e, f). […] The repopulation of the “scratch injury” occurs in part via migration of the transformed cells crawling into the “scratch injury” area. Figures (FIGS. 2b, d, and f) show proliferating cell nuclear antigen (PCNA) immunolabeling of cells in the “scratch injury” or at the injury edge.
The cells were labeled with fluorescent phalloidin to aid visualization. ACT peptide-treated cells show low levels of repopulation of the scratch injury area (white double headed arrows).

RPRPDDLEI (not fully specified (N-terminus)) [ACT 1, carboxy-terminal 9 amino acids of human Cx43; amino terminus biotinylated in tests]
closure, inflammation, healing and scarring of injuries ([1]; 100 μM in pluronic gel, 50-60 μl, applied at 0 and 24 hours, 240 hour time course (10 days), vs gel without peptide): closed faster, were significantly less inflamed in appearance, healed faster and scarred less
size of improvement in wound closure over the control, compared among peptides ([1]; 100 μM, over the time course): most pronounced improvements over the control
wound closure rates (area of open wound as % of unclosed wound relative to the control) ([1]; 100 μM, ~5 mice per condition, Mann-Whitney U-test over the time course): significantly improved wound closure rates
extent of Cx43 gap junction formation between myocytes [2]: greatly increased
proliferating cell nuclear antigen (PCNA) immunolabeling of cells in the scratch injury or at the injury edge (NIH-3T3 cells; 24 hours after scratch): only low luminosity consistent with background and non-proliferation
% area of cells repopulating the scratch injury after 24 hours (NIH-3T3 cells; 24 hours, vs control conditions, p<0.000001): reduction of cells in the injury area in the presence of ACT peptide is dramatic
